Data reported in patent US6660769B1, “N substituted 3-amino-2,2-di-c-alkyl-1,4-butyrolactones and 1,4-thiobutyrolactones for use as promoter of γ-aminobutyric acid activity and for treating nervous disorders and preparation method” (priority 1999, dated 2003).
“And” between values parts separate entries of the source, which are not always exact repeats. Equal values may be shown once. Read-outs that look alike come from different tables or passages of the source.

Experiments:
[1] = system: benzodiazepine binding site of the GABA-A receptor; experiment: [H3]flunitrazepam displacement, brain membranes
[2] = system: GABA binding site of the GABA-A receptor; experiment: [H3]muscimol displacement, brain membranes; conditions: 100 μM
[3] = system: picrotoxin binding site of the GABA-A receptor; conditions: for IC50: read-out: IC50 of S^35-TBPS displacement
mice = conditions: attacks induced by pentylenetetrazole and picrotoxin; cited from earlier work
[4] = biological target: picrotoxin binding site of the GABA-A receptor; conditions: published compounds; read-out: Displacement of S^35-TBPS (IC50); cited from earlier work
[5] = system: GABA currents in cultured neurons; conditions: cited from earlier work
[6] = biological target: T1, α1β2γ2 recombinant GABA-A receptors (Homo sapiens, UniProt P14867+P18507+P47870); experiment: cell-based
T1 construct: expressed in transfected cells; host or cells: Xenopus laevis oocytes injected with cRNA
T1 sequence (P14867 28-456): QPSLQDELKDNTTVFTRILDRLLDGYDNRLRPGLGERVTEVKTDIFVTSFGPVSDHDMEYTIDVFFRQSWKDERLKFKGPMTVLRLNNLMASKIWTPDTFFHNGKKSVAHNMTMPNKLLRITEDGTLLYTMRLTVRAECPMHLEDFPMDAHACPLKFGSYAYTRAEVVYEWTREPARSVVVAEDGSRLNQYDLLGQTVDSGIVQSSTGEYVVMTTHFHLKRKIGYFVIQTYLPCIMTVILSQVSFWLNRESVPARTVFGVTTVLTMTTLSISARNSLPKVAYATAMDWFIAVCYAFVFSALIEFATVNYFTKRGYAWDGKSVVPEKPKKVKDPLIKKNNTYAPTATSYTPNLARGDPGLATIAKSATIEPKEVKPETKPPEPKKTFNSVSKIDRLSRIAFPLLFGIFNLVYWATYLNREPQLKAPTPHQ
T1 sequence (P47870 25-512 limits assumed): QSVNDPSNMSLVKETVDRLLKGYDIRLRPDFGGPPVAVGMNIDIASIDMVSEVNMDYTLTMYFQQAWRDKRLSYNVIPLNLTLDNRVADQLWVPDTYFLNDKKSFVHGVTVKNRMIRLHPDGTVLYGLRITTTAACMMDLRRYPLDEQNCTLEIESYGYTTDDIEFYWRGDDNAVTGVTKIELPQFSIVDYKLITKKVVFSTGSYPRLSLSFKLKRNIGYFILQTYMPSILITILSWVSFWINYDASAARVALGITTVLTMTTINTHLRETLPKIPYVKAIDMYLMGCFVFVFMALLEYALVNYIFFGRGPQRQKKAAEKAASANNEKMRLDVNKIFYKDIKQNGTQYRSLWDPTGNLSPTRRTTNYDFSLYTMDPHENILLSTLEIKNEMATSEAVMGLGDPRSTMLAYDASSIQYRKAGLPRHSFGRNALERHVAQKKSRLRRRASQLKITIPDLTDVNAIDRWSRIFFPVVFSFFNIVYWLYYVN
T1 sequence (P18507 40-475): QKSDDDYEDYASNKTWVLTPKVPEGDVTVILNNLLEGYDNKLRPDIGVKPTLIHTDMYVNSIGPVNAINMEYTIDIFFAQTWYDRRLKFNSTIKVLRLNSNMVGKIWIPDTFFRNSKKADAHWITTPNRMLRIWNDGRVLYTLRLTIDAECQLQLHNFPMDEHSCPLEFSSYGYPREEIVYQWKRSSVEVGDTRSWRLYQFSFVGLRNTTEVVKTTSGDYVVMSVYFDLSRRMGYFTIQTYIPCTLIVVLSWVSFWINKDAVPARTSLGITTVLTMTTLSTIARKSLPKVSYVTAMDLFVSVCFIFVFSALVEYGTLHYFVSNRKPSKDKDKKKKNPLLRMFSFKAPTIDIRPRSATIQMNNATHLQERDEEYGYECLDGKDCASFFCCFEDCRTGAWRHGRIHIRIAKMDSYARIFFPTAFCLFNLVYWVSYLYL

[7] = Solubility noted in the electrophysiological test
[8] = 200 μM, α1β2γ2, read-out: % of stimulation of the GABA currents
[9] = α1β2γ2, read-out: % of stimulation of the GABA currents

CCCC1(CCC)C(=O)OCC1NS(=O)(=O)c1ccc(C(F)(F)F)cc1 (centres unmarked) [Compound 32, 3-(p-Trifluoromethylphenylsulfonamido)-2,2-di(C-propyl)-1,4-butyrolactone]
stimulation of the binding of flunitrazepam (printed in the % Flu inhibition column) ([1]; 100 μM): 15-20%
Inhibition of the radiolabeled ligands % Muscimol [2]: 0%
Inhibition of the radiolabeled ligands % TBPS ([3]; 10 μM, anterior part of the brain): 100%
Inhibition of TBPS in the cerebellum ([3]; cerebellum): incomplete

CCC1(C)CCOC1=O (centres unmarked) [Compound 55]
convulsant or anticonvulsant effect in mice (mice): anticonvulsant properties
IC50 [4]: 2.3 mM
% of stimulation of GABA (concentration) ([5]; 300 μM): +101 ± 8%

C[C@H]1C(=O)OC[C@H]1NC(=O)OCc1ccccc1 (relative stereo) [Compound 27, cis-3-benzyloxycarbonylamino-2-(C-methyl)-1,4-butyrolactone]
Inhibition of the radiolabeled ligands % Flu ([1]; 100 μM): 0%
stimulation of muscimol binding (printed in the % Muscimol inhibition column) [2]: 10% stimulation
% of stimulation of the GABA currents ([6]; 50 μM, α1β2γ2): −1 ± 2%
Inhibition of the radiolabeled ligands % TBPS ([3]; 100 μM): 0%

CCC1(C)COC(=O)C1 (centres unmarked) [Compound 54]
convulsant or anticonvulsant effect in mice (mice): convulsant effects

CCCC1(CCC)C(=O)OCC1NC(=O)OCc1ccccc1 (centres unmarked) [Compound 30, 3-Benzyloxycarbonylamino-2,2-(C-dipropyl)-1,4-butyrolactone]
Inhibition of the radiolabeled ligands % Flu ([1]; 100 μM): 0%
Inhibition of the radiolabeled ligands % Muscimol [2]: 0%
activation at 1 µM ([6]; 1 μM, α1β2γ2, read-out: % of stimulation of the GABA currents): 15%
activation at 10 µM ([6]; 10 μM, α1β2γ2, read-out: % of stimulation of the GABA currents): 140%
activation at 50 µM ([6]; 50 μM, α1β2γ2, read-out: % of stimulation of the GABA currents): 250%
activation at 200 µM [6, 8]: 51%
Inhibition of the radiolabeled ligands % TBPS ([3]; 10 μM): 0 10 μM) %
Inhibition of the radiolabeled ligands % TBPS ([3]; 100 μM): 55%

CCC1(CC)CCNC1=O [Compound 58]
IC50 [4]: 5.8 mM
% of stimulation of GABA (concentration) ([5]; 1 μM): +137 ± 6%

C[C@@H]1C(=O)OC[C@H]1N(Cc1ccccc1)C(=O)OCc1ccccc1 (relative stereo) [Compound 42, trans-3-(N-benzyl-N-benzyloxycarboyl)amino-2-(C-methyl)-1,4-butyrolactone]
Inhibition of the radiolabeled ligands % Flu ([1]; 100 μM): 0%
% of stimulation of the GABA currents ([6]; 200 μM, α1β2γ2): +3 ± 10%
Inhibition of the radiolabeled ligands % TBPS ([3]; 10 μM): 15%
Inhibition of the radiolabeled ligands % TBPS ([3]; 100 μM): 52%

C[C@@H]1C(=O)OC[C@@H]1N(Cc1ccccc1)C(=O)OCc1ccccc1 (relative stereo) [Compound 43, cis-3-(N-benzyl-N-benzyloxycarboyl)amino-2-(C-methyl)-1,4-butyrolactone]
Inhibition of the radiolabeled ligands % Flu ([1]; 10 μM): 20%
Inhibition of the radiolabeled ligands % Flu ([1]; 100 μM): 30%
Inhibition of the radiolabeled ligands % Muscimol [2]: 0%
% of stimulation of the GABA currents ([6]; 200 μM, α1β2γ2): −3 ± 3%
Inhibition of the radiolabeled ligands % TBPS ([3]; 10 μM): 35%
Inhibition of the radiolabeled ligands % TBPS ([3]; 100 μM): 60%

CCCC1(CCC)C(=O)OCC1NS(=O)(=O)c1ccc(Cl)cc1 (centres unmarked) [Compound 31, 3-(p-Chlorophenylsulfonamido)-2,2-di(C-propyl)-1,4-butyrolactone]
Inhibition of the radiolabeled ligands % Muscimol [2]: 0%
activation at 5 µM ([6]; 5 μM, α1β2γ2, read-out: % of stimulation of the GABA currents): 23%
IC50 [3]: 10 µM and ~10 µM
insoluble at (concentration) ([7]; in the GABA current test): insoluble at higher concentrations
solubility ([7]; pH 7.4): > 5 µM

3-Benzylamino-3,3-di(C-allyl)-1,4-butyrolactone [Compound 16]
% of stimulation of the GABA currents ([6]; 200 μM, α1β2γ2): +115 ± 30%
Inhibition of the radiolabeled ligands % TBPS ([3]; 100 μM): 62%

CC1(CC(F)(F)F)CCOC1=O (centres unmarked) [Compound 61]
IC50 [4]: 3.1 mM
% of stimulation of GABA (concentration) ([5]; 1 μM): +146 ± 12%

C[C@@H]1C(=O)OC[C@H]1NC(=O)OCc1ccccc1 (relative stereo) [Compound 28, trans-3-benzyloxycarbonylamino-2-(C-methyl)-1,4-butyrolactone]
Inhibition of the radiolabeled ligands % Flu ([1]; 100 μM): 0%
Inhibition of the radiolabeled ligands % Muscimol [2]: 0%
stimulating activities for the GABA current (in words) [6]: low stimulating activities
% of stimulation of the GABA currents ([6]; 50 μM, α1β2γ2): −7 ± 7%
Inhibition of the radiolabeled ligands % TBPS ([3]; 100 μM): 0%

C=CCOC(=O)NC1COC(=O)C1(CCC)CCC (centres unmarked) [Compound 35, 3-Allyloxycarbonylamino-2,2-di(C-propyl)-1,4-butyrolactone]
stimulation of the binding of flunitrazepam (printed in the % Flu inhibition column) ([1]; 100 μM): weak stimulation and weak
Inhibition of the radiolabeled ligands % Muscimol [2]: 0%
times more powerful than α-EMTBL in stimulating the currents produced by GABA [6]: up to 100 times
activation at 2 µM [6, 9]: 26%
activation at 20 µM [6, 9]: 229%
activation at 200 µM [6, 8]: 765%

CCCC1(CCC)C(=O)OCC1NC(=O)OCC (centres unmarked) [Compound 36, 3-Ethyloxycarbonylamino-2,2-di(C-propyl)-1,4-butyrolactone]
Inhibition of the radiolabeled ligands % Flu ([1]; 100 μM): 0%
Inhibition of the radiolabeled ligands % Muscimol [2]: 0%
IC50 [3]: > 100 µM

CCCC1(CCC)C(=O)OCC1NS(=O)(=O)c1ccc(OC)cc1 (centres unmarked) [Compound 33, 3-(p-Methoxyphenylsulfonamido)-2,2-di(C-propyl)-1,4-butyrolactone]
stimulation of the binding of flunitrazepam (printed in the % Flu inhibition column) ([1]; 100 μM): weak
Inhibition of the radiolabeled ligands % Muscimol [2]: 0%
IC50 [3]: 50 µM

O=C1CC(NC(=O)OCc2ccccc2)CO1 (centres unmarked) [Compound 26, 3-Benzyloxycarbonylamino-1,4-butyrolactone]
Inhibition of the radiolabeled ligands % Flu ([1]; 100 μM): 0%
Inhibition of the radiolabeled ligands % Muscimol [2]: 0%
stimulating activities for the GABA current (in words) [6]: low stimulating activities
% of stimulation of the GABA currents ([6]; 0.1 μM, α1β2γ2): +47 ± 90%
% of stimulation of the GABA currents ([6]; 200 μM, α1β2γ2): +47 ± 9%
Inhibition of the radiolabeled ligands % TBPS ([3]; 100 μM): 0%

CC1(CC(F)(F)F)CCSC1=O (centres unmarked) [Compound 60]
IC50 [4]: 0.52 mM
% of stimulation of GABA (concentration) ([5]; 300 μM): +160 ± 17%

CCCC1(CCC)C(=O)OCC1NC(=O)c1ccccc1 (centres unmarked) [Compound 34]
stimulation of the binding of flunitrazepam (printed in the % Flu inhibition column) ([1]; 100 μM): weak stimulation and weak
Inhibition of the radiolabeled ligands % Muscimol [2]: 0%
activation at 2 µM [6, 9]: 17%
activation at 20 µM [6, 9]: 207%
activation at 200 µM [6, 8]: 420%
